Measured values reported in PubChem BioAssay (NCI).
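Cells were grown in 96-well plates and exposed to each compound for 48 hours at five concentrations; endpoints were interpolated linearly between bracketing concentrations, or set to the highest concentration if not reached. TGI is the concentration that stops growth completely.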

Key:
Assay in all cases: NCI tumour cell line growth inhibition, 48 h
MOLT-4 leukemia = test system: MOLT-4 leukemia
IGROV1 ovarian = test system: IGROV1 ovarian
TK-10 renal = test system: TK-10 renal
M14 melanoma = test system: M14 melanoma
786-0 renal = test system: 786-0 renal
ACHN renal = test system: ACHN renal
OVCAR-8 ovarian = test system: OVCAR-8 ovarian
SR leukemia = test system: SR leukemia
SNB-19 CNS = test system: SNB-19 CNS
SW-620 colon = test system: SW-620 colon
CAKI-1 renal = test system: CAKI-1 renal
HL-60(TB) leukemia = test system: HL-60(TB) leukemia
UACC-257 melanoma = test system: UACC-257 melanoma
BT-549 breast = test system: BT-549 breast
SF-295 CNS = test system: SF-295 CNS
UACC-62 melanoma = test system: UACC-62 melanoma
SF-539 CNS = test system: SF-539 CNS
U251 CNS = test system: U251 CNS
HS 578T breast = test system: HS 578T breast
PC-3 prostate = test system: PC-3 prostate
OVCAR-3 ovarian = test system: OVCAR-3 ovarian
HOP-92 NSCLC = test system: HOP-92 NSCLC
KM12 colon = test system: KM12 colon
SK-MEL-2 melanoma = test system: SK-MEL-2 melanoma
K-562 leukemia = test system: K-562 leukemia
MALME-3M melanoma = test system: MALME-3M melanoma
NCI-H460 lung = test system: NCI-H460 lung
SK-OV-3 ovarian = test system: SK-OV-3 ovarian
MDA-MB-435 = test system: MDA-MB-435
HCT-116 colon = test system: HCT-116 colon
SK-MEL-5 melanoma = test system: SK-MEL-5 melanoma
NCI/ADR-RES ovarian = test system: NCI/ADR-RES ovarian
HCT-15 colon = test system: HCT-15 colon
RXF 393 renal = test system: RXF 393 renal
NCI-H226 lung = test system: NCI-H226 lung
COLO 205 colon = test system: COLO 205 colon
A549 NSCLC = test system: A549 NSCLC
MDA-MB-231 breast = test system: MDA-MB-231 breast
OVCAR-4 ovarian = test system: OVCAR-4 ovarian
SK-MEL-28 melanoma = test system: SK-MEL-28 melanoma
A498 renal = test system: A498 renal
LOX IMVI melanoma = test system: LOX IMVI melanoma
HOP-62 NSCLC = test system: HOP-62 NSCLC
EKVX NSCLC = test system: EKVX NSCLC
CCRF-CEM leukemia = test system: CCRF-CEM leukemia
HT29 colon = test system: HT29 colon
UO-31 renal = test system: UO-31 renal
MDA-N = test system: MDA-N
NCI-H23 lung = test system: NCI-H23 lung
MCF7 breast = test system: MCF7 breast
OVCAR-5 ovarian = test system: OVCAR-5 ovarian
SN12C renal = test system: SN12C renal
SNB-75 CNS = test system: SNB-75 CNS
RPMI-8226 leukemia = test system: RPMI-8226 leukemia
NCI-H522 lung = test system: NCI-H522 lung
SF-268 CNS = test system: SF-268 CNS
T-47D breast = test system: T-47D breast
HCC-2998 colon = test system: HCC-2998 colon
DU-145 prostate = test system: DU-145 prostate

C=C1CC[C@]2(C)[C@H](CC[C@@]34C[C@@H](CC[C@H]32)[C@@H](C(=O)O)C4)C1(C)C was tested, and the TGI (MOLT-4 leukemia) was > 12.5 µM, the TGI (IGROV1 ovarian) was > 12.5 µM and the TGI (TK-10 renal) was > 12.5 µM. For the same molecule, the TGI (M14 melanoma) was > 12.5 µM, the TGI (786-0 renal) was > 12.5 µM and the TGI (ACHN renal) was > 12.5 µM. The TGI (OVCAR-8 ovarian) was > 12.5 µM, the TGI (SR leukemia) was > 12.5 µM and the TGI (SNB-19 CNS) was > 12.5 µM. The TGI (SW-620 colon) was > 12.5 µM, the TGI (CAKI-1 renal) was > 12.5 µM and the TGI (HL-60(TB) leukemia) was > 12.5 µM. The TGI (UACC-257 melanoma) was > 12.5 µM, the TGI (BT-549 breast) was > 12.5 µM and the TGI (SF-295 CNS) was > 12.5 µM. For the same molecule, the TGI (UACC-62 melanoma) was > 12.5 µM, the TGI (SF-539 CNS) was > 12.5 µM and the TGI (U251 CNS) was > 12.5 µM. For the same molecule, the TGI (HS 578T breast) was > 12.5 µM, the TGI (PC-3 prostate) was > 12.5 µM and the TGI (OVCAR-3 ovarian) was > 12.5 µM. The TGI (HOP-92 NSCLC) was > 12.5 µM, the TGI (KM12 colon) was > 12.5 µM and the TGI (SK-MEL-2 melanoma) was > 12.5 µM. The TGI (K-562 leukemia) was > 12.5 µM, the TGI (MALME-3M melanoma) was > 12.5 µM and the TGI (NCI-H460 lung) was > 12.5 µM. For the same molecule, the TGI (SK-OV-3 ovarian) was > 12.5 µM, the TGI (MDA-MB-435) was > 12.5 µM and the TGI (HCT-116 colon) was > 12.5 µM. For the same molecule, the TGI (SK-MEL-5 melanoma) was > 12.5 µM, the TGI (NCI/ADR-RES ovarian) was > 12.5 µM and the TGI (HCT-15 colon) was > 12.5 µM. The TGI (RXF 393 renal) was > 12.5 µM, the TGI (NCI-H226 lung) was > 12.5 µM and the TGI (COLO 205 colon) was > 12.5 µM. The TGI (A549 NSCLC) was > 12.5 µM, the TGI (MDA-MB-231 breast) was > 12.5 µM and the TGI (OVCAR-4 ovarian) was > 12.5 µM. The TGI (SK-MEL-28 melanoma) was > 12.5 µM, the TGI (A498 renal) was 9.3 µM and the TGI (LOX IMVI melanoma) was > 12.5 µM. For the same molecule, the TGI (HOP-62 NSCLC) was > 12.5 µM, the TGI (EKVX NSCLC) was > 12.5 µM and the TGI (CCRF-CEM leukemia) was > 12.5 µM. For the same molecule, the TGI (HT29 colon) was > 12.5 µM, the TGI (UO-31 renal) was > 12.5 µM and the TGI (MDA-N) was > 12.5 µM. For the same molecule, the TGI (NCI-H23 lung) was > 12.5 µM, the TGI (MCF7 breast) was > 12.5 µM and the TGI (OVCAR-5 ovarian) was > 12.5 µM. For the same molecule, the TGI (SN12C renal) was > 12.5 µM.

With O=C(CCC1CCCCC1)NCc1ccc(C(=O)O)cc1 the TGI (MOLT-4 leukemia) was > 100 µM, the TGI (SNB-75 CNS) was > 100 µM and the TGI (IGROV1 ovarian) was > 100 µM. The TGI (TK-10 renal) was > 100 µM, the TGI (M14 melanoma) was > 100 µM and the TGI (786-0 renal) was > 100 µM. The TGI (ACHN renal) was > 100 µM, the TGI (OVCAR-8 ovarian) was > 100 µM and the TGI (SR leukemia) was > 100 µM. The TGI (SNB-19 CNS) was > 100 µM, the TGI (SW-620 colon) was > 100 µM and the TGI (RPMI-8226 leukemia) was > 100 µM. For the same molecule, the TGI (CAKI-1 renal) was > 100 µM, the TGI (UACC-257 melanoma) was > 100 µM and the TGI (NCI-H522 lung) was > 100 µM. For the same molecule, the TGI (BT-549 breast) was > 100 µM, the TGI (SF-268 CNS) was > 100 µM and the TGI (SF-295 CNS) was > 100 µM. For the same molecule, the TGI (UACC-62 melanoma) was > 100 µM, the TGI (SF-539 CNS) was > 100 µM and the TGI (U251 CNS) was > 100 µM. The TGI (PC-3 prostate) was > 100 µM, the TGI (OVCAR-3 ovarian) was > 100 µM and the TGI (HOP-92 NSCLC) was > 100 µM. The TGI (KM12 colon) was > 100 µM, the TGI (SK-MEL-2 melanoma) was > 100 µM and the TGI (K-562 leukemia) was > 100 µM. For the same molecule, the TGI (MALME-3M melanoma) was > 100 µM, the TGI (NCI-H460 lung) was > 100 µM and the TGI (SK-OV-3 ovarian) was > 100 µM. For the same molecule, the TGI (MDA-MB-435) was > 100 µM, the TGI (HCT-116 colon) was > 100 µM and the TGI (SK-MEL-5 melanoma) was > 100 µM. The TGI (T-47D breast) was > 100 µM, the TGI (NCI/ADR-RES ovarian) was > 100 µM and the TGI (HCT-15 colon) was > 100 µM. The TGI (RXF 393 renal) was > 100 µM, the TGI (NCI-H226 lung) was > 100 µM and the TGI (COLO 205 colon) was > 100 µM. For the same molecule, the TGI (A549 NSCLC) was > 100 µM, the TGI (MDA-MB-231 breast) was > 100 µM and the TGI (OVCAR-4 ovarian) was > 100 µM. The TGI (HCC-2998 colon) was > 100 µM, the TGI (SK-MEL-28 melanoma) was > 100 µM and the TGI (A498 renal) was > 100 µM. For the same molecule, the TGI (LOX IMVI melanoma) was > 100 µM, the TGI (DU-145 prostate) was > 100 µM and the TGI (HOP-62 NSCLC) was > 100 µM. The TGI (EKVX NSCLC) was > 100 µM, the TGI (CCRF-CEM leukemia) was > 100 µM and the TGI (HT29 colon) was > 100 µM. The TGI (UO-31 renal) was > 100 µM, the TGI (MDA-N) was > 100 µM and the TGI (NCI-H23 lung) was > 100 µM. The TGI (MCF7 breast) was > 100 µM, the TGI (OVCAR-5 ovarian) was > 100 µM and the TGI (SN12C renal) was > 100 µM.
